Test results: patent US20110045065A1, “SUBSTANCE HAVING ANTIOXIDANT, GEROPROTECTIVE AND ANTI-ISCHEMIC ACTIVITY AND METHOD FOR THE PREPARATION THEREOF” (priority 2005, published 2011)
Several values for one entry are separate records, joined by “and”; a condition that tells them apart may be missing. Equal values may be shown once. Entries after “also recorded” stand apart in the source; their conditions may differ.

Legend:
[1] = system: external segments of photoreceptor cells; test: Ascorbate-induced peroxidation of external segments of photoreceptor cells; assay type: biochemical, pig
Description: The external segments of photoreceptor cells are obtained from pig retinas according to standard procedure, using methods of differential centrifuging in a saccharose density gradient. […] Subsequently, the process was stopped by 15% trichloroacetic acid, and the concentration of TBK-active products has been determined. Samples being free of compound Ic were used as a control.
In these experiments a comparison of the speed of ascorbate-induced peroxidation of external segments of photoreceptor cells of pig eyes has been carried out, said comparison being determined with respect to the accumulation of TBK-active products in the presence of different compound I salts.

tissue of the eye = test: Local irritant action to tissue of the eye; assay type: in vivo, rabbit; conditions: six rabbits, single instillation of 1% solution, within 1 min after dropping
Protocol: The experimental measurements are carried out on six rabbits. All animals have been subjected to single instillation of 1% solution of compound I into the right eye and 1% solution of emoxypine into the left eye. The front section of the eye is controlled by a focal illumination method with a 20 D lens within 1 min. after dropping.

[2] = system: acute myocardial ischemia (occlusion of the coronary artery of rats); test: Sizes of necrosis and ischemia zones in acute myocardial ischemia; assay type: in vivo, rat
Protocol: The experiments are carried out with non-pedigree male rats having a weight of 250-300 g, which have been anesthetized with sodium ethaminale (40 mg/kg intraperitoneally). A myocardial infarction was modeled for animals, transferred to controlled breathing, by ligation of a descending branch of the left-hand coronary artery to a level of the lower edge of an auricula atrii.
The sizes of necrosis zones and ischemia zones have been determined within 4 hours after occlusion of the coronary artery by a differential indicator method, the principle of which is based on separate quantitative determination of Evans' blue (indicator of an ischemia zone) and red phormazane (indicator of an necrosis zone).

traumatic hemophthalmia = test: Experimental traumatic hemophthalmia: preclinical and ultrasonic examination; assay type: in vivo, chinchilla rabbits; conditions: for Capability of ophthalmoscopy and eyeground: 3-point scale, 0 impossible, 3 details clearly visible; for Density of hemophthalmia: 100 SUD = ultrasonic sclera density; for Area of hemophthalmia / Volume of a hemophthalmia: parabulbar 0.5 ml of 1% solution daily
Protocol: Studies were carried out in 12 chinchilla rabbits having body weight 2.0-2.5 kg. A traumatic hemophthalmia was modeled by introduction of 0.5 to 0.7 ml of autoblood into a vitreous body through a puncture in a sclera on distance of 5 mm from a limbus, under a local anaesthesia. The basic group made with 6 rabbits (12 eyes), daily received a formulation prepared in accordance with the present invention parabulbarly (0.5 ml of 1% solution). A control group presented by 6 animals (12 eyes), daily received parabulbar emoxipin (2-ethyl-6-methyl-3-hydroxypiridin) in the same dosage. Treatment was carried out within 14 days after a trauma.
Besides the traditional ophthalmologic examination such as biomicroscopy, direct and indirect ophthalmoscopy, all the animals passed through ultrasonic scanning of an eye by means of the device “Voluson 730” (“Kretz”). The studies were carried out on the 1, 3, 7, 10 and 14th day of the experiment. For the estimation of efficiency of the treatment following tests were used: density, area, volume of a hemophthalmia and opportunity (possibility) of ophthalmoscopy of an eye ground. Density of a hemophthalmia was estimated in standard (conventional) units of density (SUD), 100 SUD were accepted for the maximal value, corresponding to the ultrasonic sclera density. Depending on the degree of acoustic density of a hemophthalmia, a high (100-50 SUD), medium (50-25 SUD) and low (less than 25 SUD) densities were distinguished. To determine the hemophthalmia the area measurement in sm^2 was used. The volume of the intraocular hemorrhage was studied with the help of 3D modelling in the B-regimen of a grey scale and measurement in sm^3.
At the ultrasonic examination of the intact rabbit's eyes, the average volume of vitreous body (1.0±0.9 sm^3) and the average area of a vitreous body (1.04±0.8 sm^2) were fixed. Proceeding from the obtained data, the total hemophthalmia (from 100 up to 50% of the vitreous body volume) was equated to the volume of 0.5-1.0 sm^3 and of 0.5-1.0 sm^2, a wide-spread hemophthalmia (50-25% of volume of a vitreous) corresponded to the area of 0.5-0.25 sm^3, both 0.5-0.25 sm^2, and the partial hemophthalmia occupied up to 0.25 sm^3 and 0.25 sm^2 (up to 25% of the vitreous volume).
Capability of the eyeground ophthalmoscopy was estimated by a 3-mark(point) scale depending on the image sharpness (0—ophthalmoscopy is impossible (not capable), 3—details of an eyeground are clearly visible).

[3] = rats, 16 mg/kg, within 4 hours after occlusion of the coronary artery

“2,4,6-trimethyl-3-oxypyridine succinate [Compound Ic]” was tested, and the “Speed of accumulation of TBK-active products for 30 min of reacting” value ([1]; compound 43 mM) was 0.05 nmol/mg, the Inhibition ([1]; compound 43 mM, 30 min of reacting) was 93.5% and the Inhibition ([1]; response time 15 min, 17 mM compound, 0.5 mM ascorbic acid) was 49.6%. For the same substance, the Inhibition ([1]; response time 30 min, 17 mM compound, 0.5 mM ascorbic acid) was 32.3%, the “Local irritant reaction of conjunctiva, eyeglobe and cornea” value (tissue of the eye) was “do not show local irritating action on tissue of the eye” and the “Local irritant reaction of conjunctiva, eyeglobe and cornea” value (tissue of the eye; listed as I) was “not detected”. For the same substance, the “Ratio of necrosis zone to ischemia zone” value [2, 3] was 11 ± 3.3%, the “Ratio of necrosis zone to total mass of the myocardium” value [2, 3] was 4 ± 2.3% and the “Anti-ischemic activity in comparison” value ([2]; result in words) was “considerably higher anti-ischemic activity than the other 3-oxypyridines”. The “Capability of ophthalmoscopy and eyeground” value (from here on “Capability”) (traumatic hemophthalmia; 1st day) was 1.5 points, the Density of hemophthalmia (traumatic hemophthalmia; 1st day) was 84 ± 2.4 SUD and the Area of hemophthalmia (traumatic hemophthalmia; 1st day) was 0.49 ± 0.7 sm^2. For the same substance, the “Volume of a hemophthalmia” value (traumatic hemophthalmia; 1st day) was 0.53 ± 0.4 sm^3, the “Capability” value (traumatic hemophthalmia; 3rd day) was 0-0.5 points and the Density of hemophthalmia (traumatic hemophthalmia; 3rd day) was 72 ± 3.1 SUD. The Area of hemophthalmia (traumatic hemophthalmia; 3rd day) was 0.74 ± 0.9 sm^2, the “Volume of a hemophthalmia” value (traumatic hemophthalmia; 3rd day) was 0.78 ± 0.2 sm^3 and the “Capability” value (traumatic hemophthalmia; 7th day) was 1.5 points. For the same substance, the Density of hemophthalmia (traumatic hemophthalmia; 7th day) was 49±1.4 SUD, the Area of hemophthalmia (traumatic hemophthalmia; 7th day) was 0.47 ± 0.4 sm^2 and the “Volume of a hemophthalmia” value (traumatic hemophthalmia; 7th day) was 0.51 ± 0.6 sm^3. The “Capability” value (traumatic hemophthalmia; 10th day) was 2.2 points, the Density of hemophthalmia (traumatic hemophthalmia; 10th day) was 23±1.1 SUD and the Hemophthalmia completely resolved (traumatic hemophthalmia; 10th day, group of 6 rabbits) was “two animals”. The Area of hemophthalmia (traumatic hemophthalmia; 10th day) was 0.24±0.1 sm^2 and 0.2 ± 0.1 sm^2, the “Volume of a hemophthalmia” value (traumatic hemophthalmia; 10th day) was 0.2±0.1 sm^3 and 0.24 ± 0.1 sm^3 and the Hemophthalmia completely resolved (traumatic hemophthalmia; 14th day) was 50 % of animals. For the same substance, the “Capability” value (traumatic hemophthalmia; 14th day) was 2.8 points, the Density of hemophthalmia (traumatic hemophthalmia; 14th day) was 13±0.6 SUD and the Area of hemophthalmia (traumatic hemophthalmia; 14th day) was 0.11 ± 0.7 sm^2. The “Volume of a hemophthalmia” value (traumatic hemophthalmia; 14th day) was 0.15 ± 0.2 sm^3 and the “Efficiency on resorption of traumatic hemophthalmia” value (traumatic hemophthalmia; conclusion in words) was “positive effect on the resorptive processes in a vitreous body; also recorded: much higher in comparison with emoxipin”.
